According to patent publication US11911349B2, “Rapidly improving vascular conditions by administering vitamin K” (NATTOPHARMA AS, priority 2018, dated 2024):

Assays:
matrix gla protein (MGP) = assay: Clinical study: blood analysis of matrix gla protein (MGP) carboxylation; assay type: in vivo, human; details: 360 ug/day for 8 weeks, kidney transplant patients
Experimental: (§1) Participants were enrolled in a clinical trial in which the effects of vitamin K2 were determined for patients who had recently undergone a kidney transplant. At the beginning of the study, patients were subjected to a non-invasive pulse wave velocity measurement to measure arterial stiffness/flexibility, as well as blood analysis. The study participants were then instructed to receive a specific daily dose of MenaQ7 vitamin K2 menaquinone-7 (360 ug/day) for a total of 8 weeks. At the end of 8 weeks, patients were again examined with a follow-up examination, a non-invasive pulse wave velocity measurement and blood analysis and drug treatment was discontinued.
As part of the blood analysis, carboxylated matrix gla protein (MGP) was measured as a direct measure of vitamin K2 activity. The carboxylated MGP inhibits calcification of blood vessels and Vitamin K2 stimulates carboxylation of MGP.

[1] = test system: kidney transplantation patients; assay: Clinical study: pulse wave velocity measurement of arterial stiffness in kidney transplantation patients; assay type: in vivo, human; details: 360 ug/day for 8 weeks, kidney transplant patients
Experimental: Clinical Study to study the efficacy and safety of Vitamin K2 supplementation on arterial stiffness, the rigidity of arterial walls, in kidney transplantation patients.
A clinical study was carried out. Arterial wall property measurements were taken at t=0 and t=8 weeks and show a dramatic improvement in arterial wall flexibility. This is good support for concluding that the ingestion of vitamin K, even over this short period, is an effective way of improving endothelial function, reducing arterial stiffness and reducing calcification. […] It is surprising and unexpected because calcification is a slow progressive process and it was thought that reversing this process would also be slow and progressive.
as §1

## CC(C)=CCC/C(C)=C/CC/C(C)=C/CC/C(C)=C/CC/C(C)=C/CC/C(C)=C/CC/C(C)=C/CC1=C(C)C(=O)c2ccccc2C1=O [MenaQ7, menaquinone-7]
Matrix gla protein (MGP)
  mean reduction of levels of uncarboxylated MGP: 55%
[1]
  mean reduction in measured pulse-wave velocity: 30%
